The record followed here is patent publication EP4678635A1, “CRYSTAL FORM OF NIROGACESTAT DIHYDROBROMATE, AND PREPARATION METHOD THEREFOR AND USE THEREOF” (Crystal Pharmaceutical (Suzhou) Co., Ltd., priority 2023, dated 2024).

≈ marks a conversion by molar mass, not a printed value. Read-outs that look alike come from different tables or passages of the source.

Holding throughout (type): physicochemical
Data set [1] is described as follows: Kinetic solubility in FaSSIF and FeSSIF. As to the method:
Table 2 [table] When solubility test is used to predict the in vivo performance of a drug, it is critical to simulate in vivo conditions as closely as possible. For oral drugs, FaSSIF and FeSSIF can be used to simulate the conditions in vivo and predict the effect of eating. Solubilities in these media are closer to those in vivo. Appropriate amounts of Form CSVI were suspended in FaSSIF and FeSSIF at 37 °C. After equilibration for 0.5 h, the suspensions were filtered and the concentration (mg/mL) of Compound I in each filtrate was measured by HPLC. […]

The nature of the next data set: Bulk and tapped density. The settings on record: for Bulk density: about 500 mg in 5-mL graduated cylinder, before tapping; for Tapped density: tapped 1250 times. As to the method: About 500 mg of sample was gently loaded into a 5-mL graduated cylinder to measure the bulk volume before tapping. The sample was then tapped 1250 times on a ZS-2E tap density tester to achieve a tapped state, and the tapped volume was recorded. The bulk density ρ0 and tapped density ρf were calculated accordingly.

Data set [2] is described as follows: Compressibility (tensile strength of tablets, manual tablet press). Particulars: about 60 mg, Φ6mm round tooling, pressure of 3 kN, 24 h at RT; T=2H/πDL. Here is the method:
(§1) Tablets were prepared by an ENERPAC manual tablet press. About 60 mg of Form CSV and the prior art Form A were separately added to Φ6mm round tooling punches and compressed into tablets under a pressure of 3 kN. The tablets were left at RT for 24 h to allow complete elastic recovery. The diameter (D) and thickness (L) were measured using a vernier caliper, and their radial crushing strength (hardness, H) was determined using a tablet hardness tester. The tensile strength (T) of the powders was calculated with the following formula: T=2H/πDL. […] Under a certain force, higher tensile strength indicates better compressibility.
as §1, with “CSVI” for “CSV”

Data set [3] can be described thus: Storage stability (crystalline form by XRPD, purity by HPLC). Particulars: for Purity (%): HPLC, initial purity 99.51; for Crystalline form / remains stable for at least / Solid form: sealed container; for Crystalline form / Solid form: XRPD; for Crystalline form: initial Form CSV; for Solid form: initial Form CSVI. Here is the method: An appropriate amount of Form CSV was packaged in a sealed container and then stored under the conditions of 25 °C/60%RH, 40 °C/75%RH and 60 °C/75%RH, respectively. Crystalline form and purity were analyzed by XRPD and HPLC. The results are listed in Table 5, and the XRPD pattern overlay is depicted in Figure 4. […] Meanwhile, Form CSV remains stable for at least 2 months under 60 °C/75%RH condition, indicating Form CSV has good stability under stress condition as well.
An appropriate amount of Form CSVI was packaged in a sealed container and then stored under the conditions of 25 °C/60%RH, 40 °C/75%RH and 60 °C/75%RH, respectively. Crystalline form was analyzed by XRPD. The results are listed in Table 9, and the XRPD pattern overlay is depicted in Figure 11. […] Meanwhile, Form CSVI remains stable for at least 2 months under 60 °C/75%RH condition, indicating Form CSVI has good stability under stress condition as well.

Data set [4] can be described thus: Stability under mechanical force: ball milling, XRPD. The settings on record: ball milling at 500 rpm for 5 minutes. As to the method:
An appropriate amount of Form CSV was subjected to ball milling at 500 rpm for 5 minutes using a ball mill. […]
An appropriate amount of Form CSVI was subjected to ball milling at 500 rpm for 5 minutes using a ball mill. […]

Data set [5] can be described thus: Stability under mechanical force: tableting under different pressures, XRPD. Particulars: Φ6mm round tooling punch. Here is the method: An appropriate amount of Form CSV was compressed into tablets under different pressures with a Φ6mm round tooling punch. XRPD tests were conducted before and after compression. The test results are listed in Table 6, and the XRPD overlay is depicted in Figure 5.
An appropriate amount of Form CSVI was compressed into tablets under different pressures with a Φ6mm round tooling punch. XRPD tests were conducted before and after compression. The test results are listed in Table 10, and the XRPD overlay is depicted in Figure 12.

On to `CCC[C@H](N[C@H]1CCc2cc(F)cc(F)c2C1)C(=O)Nc1cn(C(C)(C)CNCC(C)(C)C)cn1` [Form A, (S)-2-(((S)-6,8-difluoro-1,2,3,4-tetrahydronaphthalen-2-yl)amino)-N-(1-(2-methyl-1-(neopentylamino)propan-2-yl)-1H-imidazol-4-yl) pentanamide, reference compound], for which the solubility at 0.5 h in data set [1] (fassif, solubility (concentration of Compound I in filtrate)) is 4200 µg/mL (≈ 8.58 mM); in data set [1] (solubility (concentration of Compound I in filtrate)), 7500 µg/mL (≈ 15.3 mM). Moreover, in the data set “Bulk and tapped density” (listed as The prior art Form A), the Bulk density came to 0.251 g/mL. Moreover, the Tapped density in the data set “Bulk and tapped density” (listed as The prior art Form A) is reported as 0.282 g/mL. Moreover, the average tensile strength in data set [2] is 0.37 MPa.
Take `CCC[C@H](N[C@H]1CCc2cc(F)cc(F)c2C1)C(=O)Nc1cn(C(C)(C)CNCC(C)(C)C)cn1` [Form CSV, (S)-2-(((S)-6,8-difluoro-1,2,3,4-tetrahydronaphthalen-2-yl)amino)-N-(1-(2-methyl-1-(neopentylamino)propan-2-yl)-1H-imidazol-4-yl) pentanamide]: the “Purity (%)” value is reported as 99.52% in data set [3] (25 °C/60%RH, 6 months); 99.50% in data set [3] (40 °C/75%RH, 6 months); 99.54% in data set [3] (60 °C/75%RH, 2 months). In addition, the Crystalline form entry in data set [3] (25 °C/60%RH, 6 months) is “Form CSV”; in data set [3] (40 °C/75%RH, 6 months), “Form CSV”; in data set [3] (60 °C/75%RH, 2 months), “Form CSV”. For the same molecule, the “remains stable for at least” value was “at least 6 months” in data set [3] (25 °C/60%RH), “at least 6 months” in data set [3] (40 °C/75%RH) and “at least 2 months” in data set [3] (60 °C/75%RH). The “crystalline form before and after ball milling” value in data set [4] was “remained unchanged”. This molecule also returned a Bulk density in the data set “Bulk and tapped density” of 0.422 g/mL. The molecule further gave a Tapped density in the data set “Bulk and tapped density” of 0.506 g/mL. Further, the average tensile strength in data set [2] is listed as 0.55 MPa. Further, the “After tableting (crystalline form)” value in data set [5] (Pressure 5 kN), in data set [5] (Pressure 10 kN) and in data set [5] (Pressure 20 kN) was “Form CSV” each time.
As to `CCC[C@H](N[C@H]1CCc2cc(F)cc(F)c2C1)C(=O)Nc1cn(C(C)(C)CNCC(C)(C)C)cn1` [Form CSVI, (S)-2-(((S)-6,8-difluoro-1,2,3,4-tetrahydronaphthalen-2-yl)amino)-N-(1-(2-methyl-1-(neopentylamino)propan-2-yl)-1H-imidazol-4-yl) pentanamide], the Solid form result in data set [3] (25 °C/60%RH, 8 months) was “Form CSVI”; in data set [3] (40 °C/75%RH, 8 months), “Form CSVI”; in data set [3] (60 °C/75%RH, 2 months), “Form CSVI”. In addition, the “remains stable for at least” value is reported as “at least 8 months” in data set [3] (25 °C/60%RH), “at least 8 months” in data set [3] (40 °C/75%RH) and “at least 2 months” in data set [3] (60 °C/75%RH). Besides, the “crystalline form before and after ball milling” value in data set [4] is “remained unchanged”. Also, the solubility at 0.5 h in data set [1] (FeSSIF, 37 °C, equilibration for 0.5 h, HPLC, read-out: solubility (concentration of Compound I in filtrate)) amounted to 10100 µg/mL (≈ 20.6 mM); in data set [1] (fassif, 37 °C, equilibration for 0.5 h, HPLC, read-out: solubility (concentration of Compound I in filtrate)), 16100 µg/mL (≈ 32.9 mM). Further, the average tensile strength in data set [2] amounted to 0.907 MPa. In addition, the “After tableting (crystalline form)” value in data set [5] (Pressure 5 kN), in data set [5] (Pressure 10 kN) and in data set [5] (Pressure 20 kN) was “Form CSVI” throughout.
